Source: patent US11890288B2, “Sulfonamide or sulfinamide compound having effect of inducing BRD4 protein degradation and pharmaceutical use thereof” (MITSUBISHI TANABE PHARMA CORPORATION, priority 2020, dated 2024)
pIC50: −log10 of the molar value.

What was measured:
BRD4 protein = BRD4 protein (Homo sapiens (Human), UniProt O60885); assay: BRD4 protein degradation inducing action in LNCaP cells (immunofluorescence, 6 hr); assay type: cell-based; settings: anti-BRD4 fluorescence intensity
Outline: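 Read-out is BRD4 immunofluorescence intensity (560/572 nm) after 6 hr compound treatment of LNCaP cells in 10% FBS/RPMI1640, with fixation, permeabilization and anti-BRD4 staining. Linear interpolation between the two concentrations flanking 50% of untreated intensity gives DC50.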

[1] = tested on: human prostate cancer LNCaP cells; assay: Cytotoxic action on LNCaP cells (WST-8, 96 hr); assay type: cell-based; settings: 96 hr culture
Outline: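 Viability read by WST-8 after 96 hr compound exposure of cells seeded overnight in 10% FBS/RPMI1640 (37° C, 5% CO2). Survival normalised to compound-free wells as 100%; IC50 obtained by straight-line interpolation between the two concentrations flanking 50% survival.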

| SMILES | DC50 (BRD4 protein) [nM] | pIC50 [1] |
| --- | --- | --- |
| COC(=O)C[C@@H]1N=C(c2ccc(-c3ccc4oc(C(=O)NCc5ccc(S(=O)(=O)Nc6ccc(C)c7c(C#N)c[nH]c67)cc5)cc4c3)cc2)c2c(sc(C)c2C)-n2c(C)nnc21 [Example 35, methyl [(6S)-4-(4-{2-[({4-[(3-cyano-4-methyl-1H-indol-7-yl)sulfamoyl]phenyl}methyl)carbamoyl]-1-benzofuran-5-yl}phenyl)-2,3,9-trimethyl-6H-thieno[3,2-f][1,2,4]triazolo[4,3-a][1,4]diazepin-6-yl]acetate] | 2.7 | 8.14 |
| COC(=O)C[C@@H]1N=C(c2ccc(-c3ccc(C(=O)NCCc4ccc(S(=O)(=O)Nc5ccc(C)c6c(C#N)c[nH]c56)cc4)c(Cl)c3)cc2)c2c(sc(C)c2C)-n2c(C)nnc21 [Example 41, methyl [(6S)-4-{3′-chloro-4′-[(2-{4-[(3-cyano-4-methyl-1H-indol-7-yl)sulfamoyl]phenyl}ethyl)carbamoyl][1,1′-biphenyl]-4-yl}-2,3,9-trimethyl-6H-thieno[3,2-f][1,2,4]triazolo[4,3-a][1,4]diazepin-6-yl]acetate] | 0.41 | 8.96 |
| CCc1ccc(NS(=O)(=O)c2ccc(CNC(=O)c3ccc(-c4ccc(C5=N[C@@H](CC(=O)OC(C)(C)C)c6nnc(C)n6-c6sc(C)c(C)c65)cc4)cc3)cc2)c2[nH]cc(C#N)c12 [Example Compound 135, t-butyl [(6S)-4-{4′-[({4-[(3-cyano-4-ethyl-1H-indol-7-yl)sulfamoyl]phenyl}methyl)carbamoyl][1,1′-biphenyl]-4-yl}-2,3,9-trimethyl-6H-thieno[3,2-f][1,2,4]triazolo[4,3-a][1,4]diazepin-6-yl]acetate] | 0.38 | 9.18 |
| CCc1ccc(NS(=O)(=O)c2ccc([C@@H](C)NC(=O)c3ccc(-c4ccc(C5=N[C@@H](CC(=O)OC)c6nnc(C)n6-c6sc(C)c(C)c65)cc4)cc3C)cc2)c2[nH]cc(C#N)c12 [Example Compound 123, methyl [(6S)-4-(4′-{[(1R)-1-{4-[(3-cyano-4-ethyl-1H-indol-7-yl)sulfamoyl]phenyl}ethyl]carbamoyl}-3′-methyl[1,1′-biphenyl]-4-yl)-2,3,9-trimethyl-6H-thieno[3,2-f][1,2,4]triazolo[4,3-a][1,4]diazepin-6-yl]acetate] | 0.21 | 9.49 |
| CCc1ccc(NS(=O)(=O)c2ccc(CCNC(=O)c3ccc(-c4ccc(C5=N[C@@H](CC(=O)OC)c6nnc(C)n6-c6sc(C)c(C)c65)cc4)c(F)c3)cc2)c2[nH]cc(C#N)c12 [Example Compound 124, methyl [(6S)-4-{4′-[(2-{4-[(3-cyano-4-ethyl-1H-indol-7-yl)sulfamoyl]phenyl}ethyl)carbamoyl]-2′-fluoro[1,1′-biphenyl]-4-yl}-2,3,9-trimethyl-6H-thieno[3,2-f][1,2,4]triazolo[4,3-a][1,4]diazepin-6-yl]acetate] | 0.095 | 9.57 |
| Cc1sc2c(c1C)C(c1ccc(-c3cnc(C(=O)NCc4ccc(S(=O)(=O)Nc5ccc(C)c6c(C#N)c[nH]c56)cc4)cn3)cc1)=N[C@@H](CC(=O)OC(C)(C)C)c1nnc(C)n1-2 [Example Compound 148, t-butyl [(6S)-4-(4-{5-[({4-[(3-cyano-4-methyl-1H-indol-7-yl)sulfamoyl]phenyl}methyl)carbamoyl]pyrazin-2-yl}phenyl)-2,3,9-trimethyl-6H-thieno[3,2-f][1,2,4]triazolo[4,3-a][1,4]diazepin-6-yl]acetate] | 0.042 | 9.70 |
| COC(=O)C[C@@H]1N=C(c2ccc(-c3ccc(C(=O)NCc4ccc(S(=O)(=O)Nc5ccc(C)c6c(C#N)c[nH]c56)cc4)cc3)cc2)c2c(sc(CO)c2C)-n2c(C)nnc21 [Example 55, methyl [(6S)-4-{4′-[({4-[(3-cyano-4-methyl-1H-indol-7-yl)sulfamoyl]phenyl}methyl)carbamoyl][1,1′-biphenyl]-4-yl}-2-(hydroxymethyl)-3,9-dimethyl-6H-thieno[3,2-f][1,2,4]triazolo[4,3-a][1,4]diazepin-6-yl]acetate] | 1.4 | 8.52 |
| CCOC(=O)C[C@@H]1N=C(c2ccc(-c3ccc(C(=O)NCc4ccc(S(=O)(=O)Nc5ccc(C)c6c(C#N)c[nH]c56)cc4)cc3)cc2)c2c(sc(C)c2C)-n2c(C)nnc21 [Example Compound 129, ethyl [(6S)-4-{4′-[({4-[(3-cyano-4-methyl-1H-indol-7-yl)sulfamoyl]phenyl}methyl)carbamoyl][1,1′-biphenyl]-4-yl}-2,3,9-trimethyl-6H-thieno[3,2-f][1,2,4]triazolo[4,3-a][1,4]diazepin-6-yl]acetate] | 0.033 | 10.32 |

Continued, in another order:

| DC50 (BRD4 protein) [nM] | SMILES | pIC50 [1] |
| --- | --- | --- |
| 0.18 | COC(=O)C[C@@H]1N=C(c2ccc(-c3ccc(C(=O)NCc4ccc(S(=O)(=O)Nc5ccc(C)c6c(C#N)c[nH]c56)cc4)nn3)cc2)c2c(sc(C)c2C)-n2c(C)nnc21 [Example Compound 149, methyl [(6S)-4-(4-{6-[({4-[(3-cyano-4-methyl-1H-indol-7-yl)sulfamoyl]phenyl}methyl)carbamoyl]pyridazin-3-yl}phenyl)-2,3,9-trimethyl-6H-thieno[3,2-f][1,2,4]triazolo[4,3-a][1,4]diazepin-6-yl]acetate] | 9.27 |
| 0.029 | COC(=O)C[C@@H]1N=C(c2ccc(-c3cnc(C(=O)NCc4ccc(S(=O)(=O)Nc5ccc(C)c6c(C#N)c[nH]c56)cc4)c(C)c3)cc2)c2c(sc(C)c2C)-n2c(C)nnc21 [Example 91, methyl [(6S)-4-(4-{6-[({4-[(3-cyano-4-methyl-1H-indol-7-yl)sulfamoyl]phenyl}methyl)carbamoyl]-5-methylpyridin-3-yl}phenyl)-2,3,9-trimethyl-6H-thieno[3,2-f][1,2,4]triazolo[4,3-a][1,4]diazepin-6-yl]acetate] | 9.59 |
| 0.23 | COC(=O)C[C@@H]1N=C(c2ccc(-c3ccc(C(=O)NCc4ccc(S(=O)(=O)Nc5ccc(C)c6c(C#N)c[nH]c56)cc4)c(F)c3)cc2)c2c(sc(C)c2C)-n2c(C)nnc21 [Example 2, methyl [(6S)-4-{4′-[({4-[(3-cyano-4-methyl-1H-indol-7-yl)sulfamoyl]phenyl}methyl)carbamoyl]-3′-fluoro[1,1′-biphenyl]-4-yl}-2,3,9-trimethyl-6H-thieno[3,2-f][1,2,4]triazolo[4,3-a][1,4]diazepin-6-yl]acetate] | 9.46 |
